Results as given in PMC7927096, “Dipeptides of S-Substituted Dehydrocysteine as Artzyme Building Blocks: Synthesis, Complexing Abilities and Antiproliferative Properties” (International Journal of Molecular Sciences, 2021).
Where two headings read alike, the source gives them in different places.

Experiments:
[1] = system: LoVo (colorectal adenocarcinoma); experiment: Antiproliferative activity, sulforhodamine B assay; format: cell-based, human; conditions: SRB, 72 h incubation, read-out: IC50 ± SD, LoVo
Source text: (§1) Ten different human cancer cell lines (including drug-resistant sublines) and one non-tumorigenic murine fibroblasts cell line were used to determine antiproliferative activity of the tested compounds. The MDA-MB-231 (breast adenocarcinoma), UM-UC-3 (urinary bladder transitional cell carcinoma), LoVo (colorectal adenocarcinoma), LoVo^Dx (colorectal adenocarcinoma, doxorubicin-resistant) and Balb/3T3 (non-tumorigenic murine fibroblasts) were purchased from the American Type Culture Collection (ATCC; Rockville, USA). The MCF-7 (breast adenocarcinoma) and A549 (lung carcinoma) were purchased from European Collection of Authenticated Cell Cultures (ECACC; Porton Down, UK). The UM-UC-3^CDDP, UM-UC-3^GEM, UM-UC-3^VBL, and UM-UC-3^CDDP/GEM cell lines were established at Hirszfeld Institute of Immunology and Experimental Therapy of the Polish Academy of Sciences (HIIET, PAS, Wroclaw, Poland) by the continuous exposure to the increasing concentrations of corresponding cytostatics.
(§2) The Balb/3T3 and UM-UC-3 were cultured in Dulbecco’s Modified Eagle Medium (DMEM; Life Technologies, UK) supplemented with 10% (v/v) fetal bovine serum (FBS; GE Healthcare HyClone, Logan, USA) and 2 mM L-glutamine (Sigma-Aldrich, Poznań, Poland). The UM-UC-3^CDDP, UM-UC-3^GEM, UM-UC-^3VBL, and UM-UC-3^CDDP/GEM culture media were additionally supplemented with appropriate cytostatics: 2.5 µg/mL cisplatin (Accord, Warsaw, Poland) for UM-UC-3^CDDP, 500 nM gemcitabine (Sigma-Aldrich, Poznań, Poland) for UM-UC-3^GEM, 5 nM vinblastine (Sigma-Aldrich, Poznań, Poland) for UM-UC-3VBL, 2.5 µg/mL cisplatin and 500 nM gemcitabine for UM-UC-3^CDDP/GEM. The LoVo cell line was cultured in F-12K Nutrient Mixture (F-12K; Corning, Corning, USA), supplemented with 10% (v/v) FBS. LoVo^Dx culture medium was additionally supplemented with doxorubicin 100 ng/mL (Accord, Warsaw, Poland). The MCF-7 cell line was cultured in Eagle’s medium (HIIET, PAS, Wroclaw, Poland), supplemented with 10% (v/v) FBS (Sigma-Aldrich, Poznań, Poland), 2 mM L-glutamine, MEM non-essential amino acid solution 1% (v/v) (Sigma-Aldrich, Poznań, Poland), insulin 8 µg/mL (Sigma-Aldrich, Poznań, Poland). The MDA-MB-231 cell line was cultured in RPMI 1640 (HIIET, PAS, Wroclaw, Poland), supplemented with 10% (v/v) FBS (Sigma-Aldrich, Poznań, Poland) and 2 mM L-glutamine. The A 549 cell line was cultured in OptiMEM (HIIET, PAS, Wroclaw, Poland), supplemented with 5% (v/v) FBS (GE Healthcare HyClone, Logan, USA) and 2 mM L-glutamine. All culture media were supplemented with antibiotics—100 μg/mL streptomycin (Polfa Tarchomin, Warsaw, Poland) and 100 U/mL penicillin (Sigma-Aldrich, Poznań, Poland).
(§3) All cell lines were cultured in a humidified atmosphere at 37 °C with 5% (v/v) CO2 and passaged twice a week using EDTA-Trypsin solution (pH 8; HIIET, Wroclaw, Poland) as a detachment agent.
(§4) All compounds, for antiproliferative activity assessment, were stored at […] as 50 mM solutions in dimethyl sulfoxide (DMSO; Avantor Performance Materials, Gliwice, Poland).
(§5) The cells were seeded on 384-well plates (Greiner Bio One, Kremsmünster, Austria) at 1 × 10^3 cells/well density for A 549, UM-UC-3, UM-UC-3^CDDP, UM-UC-3^GEM, UM-UC-3^CVBL and UM-UC-3^CDDP/GEM cell lines. Other cell lines were seeded at 2 × 10^3 cells/well. After overnight incubation, compounds were applied at eight concentrations (ranging from 100 µM to 0.03 µM). After 72 h incubation, the sulforhodamine B (SRB) assay based on Skehan et al. was carried out with slight modifications. In brief, 50 µL of the medium was replaced with 30 µL/well of 25% (w/v) trichloroacetic acid (Avantor Performance Materials, Gliwice, Poland). After 1 h incubation at room temperature, plates were washed three times with tap water, and 20 µL of 0.1% (w/v) solution of sulforhodamine B (Sigma-Aldrich, Poznan, Poland) in 1% (v/v) acetic acid (Avantor Performance Materials, Gliwice, Poland) was added to each well. […]

[2] = system: MDA-MB-231 (breast adenocarcinoma); experiment: Antiproliferative activity, sulforhodamine B assay; format: cell-based, human; conditions: SRB, 72 h incubation, read-out: IC50 ± SD, MDA-MB-231
Source text: as §1, §2, §3, §4, §5

A549 (lung carcinoma) = experiment: Antiproliferative activity, sulforhodamine B assay; format: cell-based, human; conditions: SRB, 72 h incubation, read-out: IC50 ± SD, A-549
Source text: as §1, §2, §3, §4, §5

[3] = system: UM-UC-3 (urinary bladder transitional cell carcinoma); experiment: Antiproliferative activity, sulforhodamine B assay; format: cell-based, human; conditions: SRB, 72 h incubation, read-out: IC50 ± SD, UM-UC-3
Source text: as §1, §2, §3, §4, §5

[4] = system: LoVo^DX (colorectal adenocarcinoma, doxorubicin-resistant); experiment: Antiproliferative activity, sulforhodamine B assay; format: cell-based, human; conditions: SRB, 72 h incubation, read-out: IC50 ± SD, LoVo^DX
Source text: as §1, §2, §3, §4, §5

[5] = system: UM-UC-3^GEM (gemcitabine-resistant); experiment: Antiproliferative activity, sulforhodamine B assay; format: cell-based, human; conditions: SRB, 72 h incubation, read-out: IC50 ± SD, UM-UC-3^GEM
Source text: as §1, §2, §3, §4, §5

[6] = system: UM-UC-3^CDDP/GEM (resistant to cisplatin and gemcitabine); experiment: Antiproliferative activity, sulforhodamine B assay; format: cell-based, human; conditions: SRB, 72 h incubation, read-out: IC50 ± SD, UM-UC-3^CDDP/GEM
Source text: as §1, §2, §3, §4, §5

[7] = system: UM-UC-3^CDDP (cisplatin-resistant); experiment: Antiproliferative activity, sulforhodamine B assay; format: cell-based, human; conditions: SRB, 72 h incubation, read-out: IC50 ± SD, UM-UC-3^CDDP
Source text: as §1, §2, §3, §4, §5

[8] = system: MCF-7 (breast adenocarcinoma); experiment: Antiproliferative activity, sulforhodamine B assay; format: cell-based, human; conditions: SRB, 72 h incubation, read-out: IC50 ± SD, MCF-7
Source text: as §1, §2, §3, §4, §5

[9] = system: UM-UC-3^VBL (vinblastine-resistant); experiment: Antiproliferative activity, sulforhodamine B assay; format: cell-based, human; conditions: SRB, 72 h incubation, read-out: IC50 ± SD, UM-UC-3^VBL
Source text: as §1, §2, §3, §4, §5

[10] = system: Balb/3T3 (non-tumorigenic murine fibroblasts); experiment: Antiproliferative activity, sulforhodamine B assay; format: cell-based; conditions: SRB, 72 h incubation, non-tumorigenic line, read-out: IC50 ± SD, Balb/3T3
Source text: as §1, §2, §3, §4, §5

[11] = system: ten diverse human cancer cells lines and murine non-tumorigenic cell line (Balb/3T3); experiment: Antiproliferative screen, whole cell line panel (statements in words); format: cell-based; conditions: SRB; for antiproliferative activity (in words): across cell lines; for activity against resistant versus parent cell lines (in words): 10d: with exception of the line resistant to gemcitabine
Source text: as §1, §2, §3, §4, §5

## [NH2][Pt]([NH2])([Cl])[Cl] [CDDP, cisplatin, reference compound]
[1]
  IC50: 4.4 ± 0.3 µM
[2]
  IC50: 24.4 ± 4.8 µM
A549 (lung carcinoma)
  IC50: 2.7 ± 1 µM
[3]
  IC50: 2.4 ± 0.6 µM
[4]
  IC50: 3.4 ± 0.2 µM
[5]
  IC50: 2.6 ± 0.2 µM
[6]
  IC50: 25.1 ± 1.9 µM
[7]
  IC50: 26.1 ± 1.8 µM
[8]
  IC50: 6 ± 2.2 µM
[9]
  IC50: 2.3 ± 0.3 µM
[10]
  IC50: 10.2 ± 4.8 µM

## COC(=O)/C(=C/Sc1nc(-c2ccccc2)c[nH]1)NC(=O)CNC(=O)OC(C)(C)C [Compound 6b, Boc-Gly-ΔCys(S-4-phenylimidazole)-OMe]
[1]; Homo sapiens, LoVo
  IC50: 32.4 ± 2.6 µM
[2]; Homo sapiens, MDA-MB-231
  IC50: 35 ± 10 µM
A549 (lung carcinoma); Homo sapiens, A549
  IC50: 27.2 ± 7.7 µM
[3]; Homo sapiens, UMUC3
  IC50: 23.1 ± 2.6 µM
[4]; Homo sapiens, LoVo/DX
  IC50: > 100 µM
[5]; Homo sapiens
  IC50: 35.1 ± 2.8 µM
[6]; Homo sapiens
  IC50: 32.5 ± 4 µM
[7]; Homo sapiens
  IC50: 34.6 ± 3.6 µM
[8]; Homo sapiens, MCF7
  IC50: 31.8 ± 7.8 µM
[9]; Homo sapiens
  IC50: 33.8 ± 2.6 µM
[10]; Mus musculus, BALB/3T3
  IC50: 38.4 ± 3.5 µM

## COC(=O)/C(=C/Sc1nc2cc(OC)ccc2o1)NC(=O)CNC(=O)OC(C)(C)C [Compound 6c, Boc-Gly-ΔCys(S-5-methoxybenzoxazole)-OMe]
[11]
  antiproliferative activity (in words): most potent representatives
  activity against resistant versus parent cell lines (in words): equipotential towards both resistant and parent cell lines
[1]; Homo sapiens, LoVo
  IC50: 8.7 ± 1.1 µM
[2]; Homo sapiens, MDA-MB-231
  IC50: 5 ± 0.8 µM
A549 (lung carcinoma); Homo sapiens, A549
  IC50: 6.2 ± 1.4 µM
[3]; Homo sapiens, UMUC3
  IC50: 7.2 ± 0.6 µM
[4]; Homo sapiens, LoVo/DX
  IC50: 6.4 ± 0.4 µM
[5]; Homo sapiens
  IC50: 5.2 ± 0.6 µM
[6]; Homo sapiens
  IC50: 8.6 ± 1.4 µM
[7]; Homo sapiens
  IC50: 7.8 ± 0.7 µM
[8]; Homo sapiens, MCF7
  IC50: 5.3 ± 0.9 µM
[9]; Homo sapiens
  IC50: 6 ± 1.5 µM
[10]; Mus musculus, BALB/3T3
  IC50: 5.3 ± 1.2 µM

## COC(=O)/C(=C/Sc1nc2ccccc2s1)NC(=O)CNC(=O)OC(C)(C)C [Compound 6d, Boc-Gly-ΔCys(S-benzothiazole)-OMe]
[11]
  antiproliferative activity (in words): most potent representatives
  activity against resistant versus parent cell lines (in words): equipotential towards both resistant and parent cell lines
[1]; Homo sapiens, LoVo
  IC50: 6.7 ± 0.7 µM
[2]; Homo sapiens, MDA-MB-231
  IC50: 6.1 ± 0.6 µM
A549 (lung carcinoma); Homo sapiens, A549
  IC50: 5.6 ± 0.9 µM
[3]; Homo sapiens, UMUC3
  IC50: 4.6 ± 0.4 µM
[4]; Homo sapiens, LoVo/DX
  IC50: 6.2 ± 0.6 µM
[5]; Homo sapiens
  IC50: 4.6 ± 0.5 µM
[6]; Homo sapiens
  IC50: 6.2 ± 0.8 µM
[7]; Homo sapiens
  IC50: 6.4 ± 0.4 µM
[8]; Homo sapiens, MCF7
  IC50: 4.5 ± 0.5 µM
[9]; Homo sapiens
  IC50: 4.9 ± 0.8 µM
[10]; Mus musculus, BALB/3T3
  IC50: 5.8 ± 0.9 µM

## COC(=O)/C(=C/Sc1nc[nH]n1)NC(=O)[C@H](Cc1ccccc1)NC(=O)OC(C)(C)C [Compound 7a, Boc-Phe-ΔCys(S-triazole)-OMe]
[11]
  antiproliferative activity (in words): markedly lower, if any, activity
[1]; Homo sapiens, LoVo
  IC50: 75.8 ± 6.5 µM
[2]; Homo sapiens, MDA-MB-231
  IC50: 53.3 ± 5.5 µM
A549 (lung carcinoma); Homo sapiens, A549
  IC50: 60.7 ± 12.1 µM
[3]; Homo sapiens, UMUC3
  IC50: 56 ± 5.7 µM
[4]; Homo sapiens, LoVo/DX
  IC50: > 100 µM
[5]; Homo sapiens
  IC50: 65.2 ± 4.9 µM
[6]; Homo sapiens
  IC50: 62.2 ± 5.3 µM
[7]; Homo sapiens
  IC50: 67.7 ± 3.9 µM
[8]; Homo sapiens, MCF7
  IC50: 74.5 ± 5.8 µM
[9]; Homo sapiens
  IC50: 54.9 ± 3.5 µM
[10]; Mus musculus, BALB/3T3
  IC50: 19.7 ± 1.9 µM

## COC(=O)/C(=C/Sc1nc(-c2ccccc2)c[nH]1)NC(=O)[C@H](Cc1ccccc1)NC(=O)OC(C)(C)C [Compound 7b, Boc-Phe-ΔCys(S-4-phenylimidazole)-OMe]
[1]; Homo sapiens, LoVo
  IC50: 16.4 ± 1.7 µM
[2]; Homo sapiens, MDA-MB-231
  IC50: 15.2 ± 4.4 µM
A549 (lung carcinoma); Homo sapiens, A549
  IC50: 12 ± 4 µM
[3]; Homo sapiens, UMUC3
  IC50: 13.5 ± 4.5 µM
[4]; Homo sapiens, LoVo/DX
  IC50: 23 ± 2.2 µM
[5]; Homo sapiens
  IC50: 19.9 ± 3.3 µM
[6]; Homo sapiens
  IC50: 17.2 ± 2.1 µM
[7]; Homo sapiens
  IC50: 19 ± 3.2 µM
[8]; Homo sapiens, MCF7
  IC50: 15.5 ± 2.5 µM
[9]; Homo sapiens
  IC50: 17.3 ± 1.7 µM
[10]; Mus musculus, BALB/3T3
  IC50: 7.6 ± 0.9 µM

## COC(=O)/C(=C/Sc1nc2cc(OC)ccc2o1)NC(=O)[C@H](Cc1ccccc1)NC(=O)OC(C)(C)C [Compound 7c, Boc-Phe-ΔCys(S-5-methoxybenzoxazole)-OMe]
[11]
  antiproliferative activity (in words): most potent representatives
  activity against resistant versus parent cell lines (in words): equipotential towards both resistant and parent cell lines
[1]; Homo sapiens, LoVo
  IC50: 6.3 ± 0.5 µM
[2]; Homo sapiens, MDA-MB-231
  IC50: 7.1 ± 0.8 µM
A549 (lung carcinoma); Homo sapiens, A549
  IC50: 4 ± 1.1 µM
[3]; Homo sapiens, UMUC3
  IC50: 6.2 ± 0.8 µM
[4]; Homo sapiens, LoVo/DX
  IC50: 4.5 ± 0.4 µM
[5]; Homo sapiens
  IC50: 7 ± 0.5 µM
[6]; Homo sapiens
  IC50: 5.9 ± 0.4 µM
[7]; Homo sapiens
  IC50: 6.8 ± 0.8 µM
[8]; Homo sapiens, MCF7
  IC50: 4.5 ± 0.4 µM
[9]; Homo sapiens
  IC50: 5.8 ± 0.6 µM
[10]; Mus musculus, BALB/3T3
  IC50: 5.3 ± 0.4 µM
